SMILES strings stand for the structures.

These results are taken from US12344613B2, “EGFR inhibitor for the treatment of cancer” (Hoffmann-La Roche Inc., priority 2019, dated 2025).

For this test, the target named is T1, EGFR TMLRCS (BaF3-TMLRCS cell line) (Homo sapiens, UniProt P00533, C797S/L858R/T790M).
T1 construct: host or cells: Ba/F3 (BaF3-TMLRCS), maintained under puromycin selection
Put plainly: HTRF Phospho EGFR TMLRCS Assay (Cellular). The class given is cell-based. Particulars: BaF3-TMLRCS cells, 4 hours incubation. How it is done:
HTRF Phospho EGFR TMLRCS Assay (Cellular)
BaF3-TMLRCS cell line were obtained from Crownbio (San Diego, CA, USA). Cells were maintained at 37° C., 5% CO2 in RPMI ATCC (Gibco 31870)+2 mM Glutamine+0.5 μg/ml Puromycin supplemented with 10% fetal bovine serum (FBS) (Gibco).
Cells are transferred as above to Greiner Bio-One, Nr. 784-08 micro-titerplate at 20000 cells/well in 12.5 μl of growth medium/well after the plates had been pre-filled with 12.5 nl of DMSO solutions of the to be tested compounds (in dose response) or DMSO only. After spinning the plates at 300×g for 30 seconds the cells were incubated for 4 hours at 37 C, 5% CO2, 95% humidity. The cells were lysed by adding to the compound mix 4 μl/well of the supplemented lysis buffer (Cis-bio, Phospho-EGFR HTRF kit, 64EG1PEH), followed by incubation for 30 min at room temperature with shaking (400 rpm). The plates were then frozen and stored overnight at −80 C. […] The lidded plates were then incubated for 4 h at room temperature before reading the fluorescence emission at 616 and 665 nm using an Envision reader (Perkin Elmer). Data was analyzed in similar fashion as above using the normalized ratio of the 665 to 616 signals multiplied by 10000.
On the technique in general: In TR-FRET formats the signal depends on donor and acceptor labels being close together.

T1 sequence (P00533 25-1210 T790M/C797S/L858R): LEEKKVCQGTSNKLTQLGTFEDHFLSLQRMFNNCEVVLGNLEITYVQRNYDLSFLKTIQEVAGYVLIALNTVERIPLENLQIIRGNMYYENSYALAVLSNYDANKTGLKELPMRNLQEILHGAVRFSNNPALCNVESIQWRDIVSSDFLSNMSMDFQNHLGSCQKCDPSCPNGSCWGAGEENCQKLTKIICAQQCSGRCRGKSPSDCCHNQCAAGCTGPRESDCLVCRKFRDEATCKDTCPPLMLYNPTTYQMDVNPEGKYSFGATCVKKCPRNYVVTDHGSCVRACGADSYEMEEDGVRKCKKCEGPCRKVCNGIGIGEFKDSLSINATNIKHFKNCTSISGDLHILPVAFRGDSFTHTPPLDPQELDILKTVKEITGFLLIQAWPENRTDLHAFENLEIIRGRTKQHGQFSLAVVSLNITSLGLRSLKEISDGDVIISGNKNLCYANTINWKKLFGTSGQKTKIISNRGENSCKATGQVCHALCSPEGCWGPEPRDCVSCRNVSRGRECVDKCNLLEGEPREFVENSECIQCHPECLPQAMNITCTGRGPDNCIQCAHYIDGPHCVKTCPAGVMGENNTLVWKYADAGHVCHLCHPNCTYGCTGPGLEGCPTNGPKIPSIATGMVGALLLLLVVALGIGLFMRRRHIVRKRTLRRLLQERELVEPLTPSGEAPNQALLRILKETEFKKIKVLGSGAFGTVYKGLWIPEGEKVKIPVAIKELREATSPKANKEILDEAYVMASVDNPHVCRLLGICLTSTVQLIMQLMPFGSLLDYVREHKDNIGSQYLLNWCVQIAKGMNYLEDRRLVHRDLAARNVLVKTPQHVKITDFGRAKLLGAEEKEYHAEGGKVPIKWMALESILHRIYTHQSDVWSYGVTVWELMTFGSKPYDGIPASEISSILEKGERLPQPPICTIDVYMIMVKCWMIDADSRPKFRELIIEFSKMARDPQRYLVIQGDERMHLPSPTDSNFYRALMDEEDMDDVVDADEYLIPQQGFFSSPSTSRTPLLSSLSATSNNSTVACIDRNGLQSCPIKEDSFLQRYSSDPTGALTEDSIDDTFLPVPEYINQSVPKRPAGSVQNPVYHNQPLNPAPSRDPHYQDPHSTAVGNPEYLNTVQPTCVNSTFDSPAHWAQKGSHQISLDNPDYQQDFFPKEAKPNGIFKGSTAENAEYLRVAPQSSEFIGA

For orientation: IC50 means the concentration that gives 50% inhibition. The low end stands for greater potency, the high end for weaker potency. As to `O=C(Nc1nccs1)C(c1ncn2c1C[C@@H](F)C2)n1cc2c(Cl)cc(-c3ccc(N4CCOCC4)cc3)c(Cl)c2n1` (stereo partly drawn) [Example 1, 2-[4,7-Dichloro-6-(4-morpholinophenyl)indazol-2-yl]-2-[(6R)-6-fluoro-6,7-dihydro-5H-pyrrolo[1,2-c]imidazol-1-yl]-N-thiazol-2-yl-acetamide], the 50% inhibitory concentration (IC50) turned out to be 5 nM.
